Test results: patent US20130196954A1, “METHOD OF TREATING ACNE” (priority 2010, published 2013)

How the values were obtained:
moderate or severe acne = test: Phase 2 randomized, double-blind, placebo-controlled clinical study, efficacy; format: in vivo, human; details: ITT; for Reduction from baseline in inflammatory lesion count / Success Rate (IGA clear or almost clear): oral once daily
Procedure: As used herein, “success rate” means the percentage of subjects who achieve a score of “clear” or “almost clear” by Investigator's Global Assessment (IGA) (Inflammatory): A phase 2, multi-center, randomized, double-blind, parallel group, placebo-controlled study was conducted. The treatments were (1) 40 mg doxycycline tablet containing 30 mg IR and 10 mg DR (CD2575/101); (2) doxycycline 100 mg capsules; and (3) placebos (double dummy), which were administered orally once daily. Patients having moderate or severe acne (25 to 75 inflammatory lesions on the face (including the nose) were subjects in the study. Total 660 subjects (220/group) were divided in a 1:1:1 randomization for the three treatments. The treatments lasted 16 weeks. The following were measured for efficacy studies: change from baseline to week 16 (LOCF, ITT) in inflammatory lesion counts (primary endpoint); success rate at week 16 (LOCF, ITT); percent change in inflammatory lesion counts from baseline to week 16 (LOCF, ITT); percent change in total lesion counts from baseline to week 16 (LOCF, ITT); change from baseline to week 16 (LOCF, ITT) in non-inflammatory lesion counts; global assessment for inflammatory lesions of truncal acne at baseline, week 12, and week 16/ET visit, etc. The investigator evaluated the subject's acne at every study visit using the Investigator's Global Assessment (Inflammatory) scale as that described above. The IGA scale in this study focused on inflammatory lesions as the mode of study drug action in acne vulgaris is primarily anti-inflammatory. Onset of efficacy was to be determined for the change in inflammatory lesions and for the success rate, by analyzing time points earlier than week 16

[1] = Phase 2 clinical study, safety (adverse events); format: in vivo, human
Procedure: A phase 2, multi-center, randomized, double-blind, parallel group, placebo-controlled study was conducted. The treatments were (1) 40 mg doxycycline tablet containing 30 mg IR and 10 mg DR (CD2575/101); (2) doxycycline 100 mg capsules; and (3) placebos (double dummy), which were administered orally once daily.
Patients having moderate or severe acne (25 to 75 inflammatory lesions on the face (including the nose) were subjects in the study. Total 660 subjects (220/group) were divided in a 1:1:1 randomization for the three treatments. The treatments lasted 16 weeks.
The safety studies included standard safety reporting. Adverse events of special interest included phototoxicity; pseudotumor cerebri; and pseudomembranous colitis. Vital signs were observed by the investigator at each visit. Lab tests were conducted at 0, 8 & 16 weeks.

[2] = N = 216 (40 mg), N = 223 (100 mg)

C[C@H]1c2cccc(O)c2C(=O)C2=C(O)[C@]3(O)C(=O)C(C(N)=O)=C(O)[C@@H](N(C)C)[C@@H]3[C@@H](O)[C@@H]21 [Doxycycline 100 mg, doxycycline]
Median % Change in Inflammatory Lesion Count (moderate or severe acne; Week 12 (LOCF)): −46.7%
Median % change in Total Lesion Count (moderate or severe acne; Week 12 (LOCF)): −30.6%
Reduction in inflammatory lesion count, delta vs placebo (moderate or severe acne; Week 12 (LOCF)): 0.3
Success Rate, delta vs placebo (moderate or severe acne; Week 12 (LOCF)): −1.4
Reduction from baseline in inflammatory lesion count (moderate or severe acne; Week 12 (LOCF)): 12.2 (0.604)
Success Rate (IGA clear or almost clear) (moderate or severe acne; Week 12 (LOCF)): 5.4% (0.536)
Median % Change in Inflammatory Lesion Count (moderate or severe acne; Week 16 (LOCF)): −47.3%
Median % change in Total Lesion Count (moderate or severe acne; Week 16 (LOCF)): −35.9%
Reduction in inflammatory lesion count, delta vs placebo (moderate or severe acne; Week 16 (LOCF)): 0.3
Success Rate, delta vs placebo (moderate or severe acne; Week 16 (LOCF)): 6.1
Reduction from baseline in inflammatory lesion count (moderate or severe acne; Week 16 (LOCF)): 12.9 (0.595)
Success Rate (IGA clear or almost clear) (moderate or severe acne; Week 16 (LOCF)): 13.8% (0.035)
drug related AEs (nausea, vomiting & headaches) ([1]; 16 weeks once daily oral): 38
Total Number of AE(s) ([1]; 16 weeks once daily oral, N = 216 (40 mg), N = 223 (100 mg)): 50
Abdominal discomfort, number of subjects [1, 2]: 4
Abdominal discomfort, percent of subjects [1, 2]: (1.8%)
Dizziness, number of subjects [1, 2]: 1
Dizziness, percent of subjects [1, 2]: (0.4%)
Headache, number of subjects [1, 2]: 6
Headache, percent of subjects [1, 2]: (2.7%)
Nausea, number of subjects [1, 2]: 12
Nausea, percent of subjects [1, 2]: (5.4%)
Tinnitus, number of subjects [1, 2]: 0
Total Number of Subjects with AE(s), number [1, 2]: 38
Total Number of Subjects with AE(s), percent [1, 2]: (17.0%)
Urticaria, number of subjects [1, 2]: 2
Urticaria, percent of subjects [1, 2]: (0.9%)
Vomiting, number of subjects [1, 2]: 14
Vomiting, percent of subjects [1, 2]: (6.3%)
Vulvovaginal mycotic infection, number of subjects [1, 2]: 1
Vulvovaginal mycotic infection, percent of subjects [1, 2]: (0.4%)
